Several values for one entry are separate records, joined by “and”; a condition that tells them apart may be missing. Identical values can stand only once.

The record followed here is US20200360306A1, “USE OF CO-CRYSTALS OF TRAMADOL AND CELECOXIB FOR TREATING PAIN WHILE REDUCING THE ABUSE LIABILITY OF TRAMADOL” (ESTEVE PHARMACEUTICALS, S.A., priority 2019, published 2020).

The data set in a line: Single dose, randomized, open-label, 4-period crossover pharmacokinetic study; plasma tramadol and O-desmethyltramadol (M1) by HPLC-MS/MS; AQ=Cmax/Tmax. The conditions noted are these: healthy subjects; for AQ for tramadol, comparison between treatments (statistical significance): 4-way cross-over study; for O-desmethyltramadol AQ / O-desmethyltramadol Cmax / O-desmethyltramadol Tmax / Tramadol AQ / Tramadol Cmax: 2 × 100 mg co-crystal E-58425 tablets (Treatment 1), oral. The procedure: The study was a single center, randomized, single dose, open-label, 4-period, 4-sequence, crossover design in healthy male and female subjects.
The products were administered to 36 subjects. The wash-out between the periods for each subject was of 7 calendar days.
Separate blood samples were obtained for analysis of tramadol/M1 metabolite and for analysis of celecoxib (data not shown).
As soon as possible following blood collection, samples were centrifuged at a temperature of 4° C. nominal and at approximately 1500 g for 10 minutes. The plasma obtained was separated into duplicate polypropylene culture tubes. […] The samples were frozen in an upright position and retained in the clinic's freezers at a temperature of −20° C. nominal until sent on dry ice to the bioanalytical facility for assay.
The experimental human plasma samples were assayed for tramadol and M1 metabolite (O-desmethyltramadol) and also for celecoxib (data not shown) using two different validated bioanalytical methods by HPLC with MS/MS detection.
Sample pre-treatment involved the liquid-liquid extraction of tramadol and O-desmethyltramadol from 0.100 mL of human plasma; tramadol-D6 and O-desmethyltramadol-D6 were used as the internal standards (IS1 and IS2 respectively). The compounds were identified and quantified using Hilic HPLC with MS/MS detection over a theoretical concentration range of 2.00 ng/mL to 800.00 ng/mL for tramadol and 0.500 ng/mL to 200.00 ng/mL for O-desmethyltramadol. The concentrations were calculated using peak area ratios and the linearity of the calibration curve was determined using a weighted (1/x^2) linear (y=mx+b) least squares regression analysis for tramadol and for O-desmethyltramadol.
Pharmacokinetic parameters were estimated from the individual plasma concentration—time profile for each subject. The main absorption and disposition parameters were obtained using a non-compartmental approach with a log-linear terminal phase assumption. Maximum observed plasma concentration (Cmax) and the time of maximum observed plasma concentration (Tmax) were obtained directly from the experimental data. The trapezoidal rule was used to estimate the area under the curve (AUC; data not shown) and the terminal phase was estimated by maximizing the coefficient of determination estimated from the log-linear regression model (T1/2; data not shown). The abuse quotient was obtained using the following expression AQ=Cmax/Tmax.

Setting [1] is: Table 3 summary, oral co-crystal E-58425 tablets.

In the case of `COc1cccc([C@]2(O)CCCC[C@@H]2CN(C)C)c1.Cc1ccc(-c2cc(C(F)(F)F)nn2-c2ccc(S(N)(=O)=O)cc2)cc1.Cl` (racemic) [co-crystal E-58425, co-crystal of (rac)-tramadol.HCl and celecoxib], the “AQ for tramadol, comparison between treatments (statistical significance)” value is given as “better (lower) AQ ratio”. Where the note is “listed as Co-crystal E-58425”, the “AQ for tramadol, comparison between treatments (statistical significance)” value was “lower than those obtained for Ultram® and for Ultram® and Celebrex® taken concomitantly”. Moreover, under “Mean, n=33”, the “O-desmethyltramadol AQ” value was 13.5 ng/(mL · h), the “O-desmethyltramadol Cmax” value came out at 54.5 ng/mL, the “O-desmethyltramadol Tmax” value turned out to be 4.4 h and the “Tramadol AQ” value was 70.5 ng/(mL · h). Also, the “Tramadol Cmax” value (Mean, n=33) came to 214.3 ng/mL. Further, where the note is “Median, n=33”, the “O-desmethyltramadol AQ” value was 13.3 ng/(mL · h), the “O-desmethyltramadol Cmax” value is listed as 55.4 ng/mL, the “Tramadol AQ” value was 70.7 ng/(mL · h) and the “Tramadol Cmax” value is listed as 207.5 ng/mL. Further, under setting [1], the “AQ M1 Mean” value is reported as 13.5 and the “AQ Tramadol Mean” value came to 70.5. The “O-desmethyltramadol Tmax” value (individual subject values, fasting, plasma) was 3.00 h and 4.00 h.
